Source: patent EP1247803A2, “Indolinone compounds suitable for modulation of protein kinases” (Sugen, Inc., priority 1996, dated 1998)

Assays:
PDGF-R = PDGF-R (Homo sapiens, UniProt P09619); assay: PDGF-R ELISA; type: cell-based
Source text: A PDGF-R ELISA is described in International Patent Publication No. WO 96/40116, published December 19, 1996 by Tang et al.

EGFR = molecular target: T1, EGFR (Homo sapiens, UniProt P00533); assay: EGFR ELISA assay (in vitro kinase activity, EGFR captured from A431 cell lysate); type: biochemical; set-up: concentration or dose not given beside the values
T1 construct: Add 7 ug A431 cell lysate per well (EGFR source); endogenous in cells; host or cells: A431
T1 sequence (P00533 25-1210): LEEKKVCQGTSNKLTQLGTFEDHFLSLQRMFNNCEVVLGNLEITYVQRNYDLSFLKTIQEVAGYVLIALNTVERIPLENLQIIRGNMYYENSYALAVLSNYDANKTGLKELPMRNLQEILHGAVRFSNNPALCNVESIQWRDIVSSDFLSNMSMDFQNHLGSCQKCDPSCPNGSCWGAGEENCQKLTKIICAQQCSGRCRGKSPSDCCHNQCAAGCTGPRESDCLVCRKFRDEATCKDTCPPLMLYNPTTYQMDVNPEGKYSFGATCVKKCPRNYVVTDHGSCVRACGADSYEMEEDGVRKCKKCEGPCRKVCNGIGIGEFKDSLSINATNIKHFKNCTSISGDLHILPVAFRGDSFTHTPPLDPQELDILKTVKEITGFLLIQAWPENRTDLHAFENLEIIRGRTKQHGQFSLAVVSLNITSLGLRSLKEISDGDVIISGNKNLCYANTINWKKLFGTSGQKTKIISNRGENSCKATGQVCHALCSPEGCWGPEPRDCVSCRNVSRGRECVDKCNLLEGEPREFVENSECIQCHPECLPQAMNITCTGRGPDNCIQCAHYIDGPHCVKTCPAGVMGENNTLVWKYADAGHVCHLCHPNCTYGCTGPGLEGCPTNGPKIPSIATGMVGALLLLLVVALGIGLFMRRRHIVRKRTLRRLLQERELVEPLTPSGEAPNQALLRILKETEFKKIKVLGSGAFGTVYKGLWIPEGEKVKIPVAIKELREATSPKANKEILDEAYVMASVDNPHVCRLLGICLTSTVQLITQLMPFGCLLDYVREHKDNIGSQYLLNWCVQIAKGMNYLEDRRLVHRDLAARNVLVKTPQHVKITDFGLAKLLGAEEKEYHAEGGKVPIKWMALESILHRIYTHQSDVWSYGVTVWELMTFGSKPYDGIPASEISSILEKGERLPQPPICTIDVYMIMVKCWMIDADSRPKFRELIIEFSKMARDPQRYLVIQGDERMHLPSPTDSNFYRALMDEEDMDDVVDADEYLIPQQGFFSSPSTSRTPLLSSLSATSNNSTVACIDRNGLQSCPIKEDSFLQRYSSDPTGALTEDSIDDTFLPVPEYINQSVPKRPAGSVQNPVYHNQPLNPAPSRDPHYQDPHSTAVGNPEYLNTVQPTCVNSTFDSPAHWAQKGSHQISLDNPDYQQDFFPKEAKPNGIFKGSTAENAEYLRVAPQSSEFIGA
Procedure, shortened: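 Receptor autophosphorylation was read by ELISA: anti-phosphotyrosine serum and an HRP-linked secondary with ABTS substrate, absorbance at 410 nm (reference 630 nm). The reaction ran 5 min with 3 µM ATP and 5 mM MnCl2 and was quenched by 20 mM EDTA. Compounds were first incubated 30 min with antibody-captured EGFR from A431 cell lysate.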

MET = MET biochemical kinase assay; set-up: species or system human; concentration or dose not given beside the values
Procedure, shortened: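 In this format, tyrosine phosphorylation of plate-captured human MET is followed in vitro after compound addition in ATP/divalent-cation buffer, detected by anti-phosphotyrosine-HRP with TMB substrate.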

PDGF-R, sequence (P09619 33-1106, species assumed): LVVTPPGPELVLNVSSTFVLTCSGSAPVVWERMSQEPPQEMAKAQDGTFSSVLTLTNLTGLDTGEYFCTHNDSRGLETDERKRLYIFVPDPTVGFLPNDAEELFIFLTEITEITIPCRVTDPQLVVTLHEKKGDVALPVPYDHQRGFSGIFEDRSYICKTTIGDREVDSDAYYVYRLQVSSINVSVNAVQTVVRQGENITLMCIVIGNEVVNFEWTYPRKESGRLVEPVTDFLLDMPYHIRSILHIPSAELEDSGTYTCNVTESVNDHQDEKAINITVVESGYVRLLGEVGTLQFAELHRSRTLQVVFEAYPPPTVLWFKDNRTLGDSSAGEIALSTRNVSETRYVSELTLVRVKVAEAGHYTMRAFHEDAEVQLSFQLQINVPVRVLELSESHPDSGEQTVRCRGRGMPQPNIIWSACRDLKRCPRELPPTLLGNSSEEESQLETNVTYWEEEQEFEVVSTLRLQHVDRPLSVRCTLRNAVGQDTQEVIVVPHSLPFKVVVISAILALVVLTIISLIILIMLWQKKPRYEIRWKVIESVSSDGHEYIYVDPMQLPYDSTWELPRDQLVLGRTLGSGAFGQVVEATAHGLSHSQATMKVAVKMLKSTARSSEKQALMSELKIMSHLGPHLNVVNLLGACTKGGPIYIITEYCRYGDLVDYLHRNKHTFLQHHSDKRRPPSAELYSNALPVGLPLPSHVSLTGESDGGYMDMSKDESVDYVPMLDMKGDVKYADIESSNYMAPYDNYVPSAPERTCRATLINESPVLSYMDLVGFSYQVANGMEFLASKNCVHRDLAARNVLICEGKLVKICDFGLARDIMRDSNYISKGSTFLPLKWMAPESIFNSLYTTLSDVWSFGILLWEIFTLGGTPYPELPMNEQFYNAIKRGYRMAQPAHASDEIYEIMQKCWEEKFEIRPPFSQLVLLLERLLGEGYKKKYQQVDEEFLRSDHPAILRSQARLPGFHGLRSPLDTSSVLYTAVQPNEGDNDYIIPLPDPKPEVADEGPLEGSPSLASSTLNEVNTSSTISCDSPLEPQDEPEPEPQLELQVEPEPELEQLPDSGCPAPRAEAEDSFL

Compound | PDGF Kinase %Inhibition (PDGF-R) [%] | Biochem EGFR %Inhibition (EGFR) [%] | Met Kinase % Inhibition (MET) [%]
COc1c(I)cc(C=C2C(=O)Nc3ccc(CCCl)cc32)cc1C(C)(C)C [10732/G11] | 38.6 | -33.7 | 63.0
COc1c(O)ccc(C=C2C(=O)Nc3c(Br)cc(Br)cc32)c1[N+](=O)[O-] [10733/A11] | 4.2 | 23.0 | 43.5
CNS(=O)(=O)c1ccc2c(c1)C(=Cc1cc(I)c(OC)c(C(C)(C)C)c1)C(=O)N2 [10732/D11] | 18.9 | -13.4 | 48.6
COc1cc(Br)cc(C=C2C(=O)Nc3ccc(I)cc32)c1O [10733/B08] | -15.7 | 32.5 | 65.5
COc1c(Br)cc(C=C2C(=O)Nc3ccc(S(=O)(=O)N4CCOCC4)cc32)cc1C(C)(C)C [10732/F07] | 38.6 | -12.5 | 65.5
CNS(=O)(=O)c1ccc2c(c1)C(=Cc1cc(I)c(OCc3ccccc3)c(C(C)(C)C)c1)C(=O)N2 [10733/D02] | 17.6 | 12.5 | 63.4
COc1c(Br)cc(C=C2C(=O)Nc3ccc(CCCl)cc32)cc1C(C)(C)C [10732/G07] | 21.4 | -21.9 | 23.9
Cc1c(Br)ccc2c1C(=Cc1cc(Br)ccc1O)C(=O)N2 [10733/C09] | 91.9 | 46.0 | 16.3
COc1ccc(C=C2C(=O)Nc3ccc(S(=O)(=O)N4CCOCC4)cc32)cc1C(C)(C)C [10732/F05] | 12.8 | -30.7 | 58.9
Cc1cc(C=C2C(=O)Nc3ccc(I)cc32)cc(C)c1OCc1ccccc1 [10733/B07] | 4.2 | 32.7 | 73.5
Cc1cc(C=C2C(=O)Nc3ccc(Br)c(C)c32)cc(C)c1OCc1ccccc1 [10733/C07] | 4.6 | 16.7 | 10.2
COc1c(Br)cc(C=C2C(=O)Nc3ccc(S(=O)(=O)Nc4ccc(C(F)(F)F)cc4)cc32)cc1C(C)(C)C [10732/E07] | 42.2 | -8.5 | 15.2
COc1c(O)ccc(C=C2C(=O)Nc3ccc(I)cc32)c1[N+](=O)[O-] [10733/B11] | 23.7 | 12.5 | 36.6
COc1cc(Br)cc(C=C2C(=O)Nc3c(Br)cc(Br)cc32)c1O [10733/A08] | -10.1 | 19.5 | 27.2
O=C1Nc2c(Br)cc(Br)cc2C1=Cc1cc([N+](=O)[O-])ccc1O [10733/A10] | -13.3 | 14.2 | 21.1
CNS(=O)(=O)c1ccc2c(c1)C(=Cc1cc([N+](=O)[O-])ccc1O)C(=O)N2 [10733/D10] | -10.1 | 46.8 | 22.8
COc1c(C(C)C)cc(C=C2C(=O)Nc3ccc(S(=O)(=O)N4CCOCC4)cc32)cc1C(C)C [10732/F03] | 51.8 | 54.1 | 68.6
